# Results published in US20210348164A1, “ENDOGENOUS CYTOPLASMIC ALU COMPLEMENTARY DNA IN AGE-RELATED MACULAR DEGENERATION” (University of Virginia Patent Foundation, priority 2018, published 2021).
# Entries after “also recorded” stand apart in the source; their conditions may differ.
# Legend:
# [1] = tested on: Alu cDNA in primary human RPE cells; experiment: Alu cDNA in primary human RPE cells (Alu c-PCR, real-time PCR, in situ hybridization, equator blotting); type: cell-based; conditions: primary human RPE cells; cytoplasmic fraction; Alu c-PCR
# Method: Cell culture and transfection. Primary mouse and human RPE cells were isolated as previously described (Kerur et al., 2018). All cells were maintained at 37° C. in a 5% CO2 environment. Mouse RPE cells were cultured in DMEM supplemented with 20% FBS and penicillin/streptomycin antibiotics at standard concentrations; primary human RPE cells were maintained in DMEM supplemented with 10% FBS and antibiotics. The human RPE cell line ARPE19 was cultured as previously described (Kerur et al., 2018) and maintained in DMEM-F12 containing penicillin/streptomycin, Fungizone, and gentamicin. HEK293T cells were cultured in DMEM with 10% fetal bovine serum (FBS) with 100 U/ml penicillin/streptomycin and 2 mM L-glutamine. Primary wild-type mouse bone marrow-derived macrophages (BMDMs) were isolated, and cultured in Iscove's Modified Dulbecco's Medium (IMDM) supplemented with 30% L929 supernatant containing macrophage-stimulating factor, nonessential amino acids, sodium pyruvate, 10% FBS and antibiotics, 50 μM β-mercaptoethanol (Seo et al., 2015), and serum starved in IMDM with 1% FBS and 100 U/ml penicillin/streptomycin overnight prior to LPS stimulation. NRTIs or NNRTIs were added 30 minutes prior to LPS stimulation and again 30 minutes prior to ATP activation. LPS (100 ng/mL) was added for 3-4 hours prior to the addition of ATP. Cell lysates were collected 30 minutes after addition of ATP (5 mM). Primary human subcutaneous pre-adipocytes (Catalogue No. PCS-210-010, ATCC, Manassas, Va., United States of America) and primary human dermal fibroblasts (Catalogue No. PCS-201-012, ATCC) were grown in fibroblast basal medium with fibroblast growth kit for low serum (ATCC).
# Umbilical artery vascular smooth muscle cells (Catalogue No. CC-2579, Lonza, Morristown, N.J., United States of America) were grown in SMGM™-2 Smooth Muscle Growth Medium-2 BULLETKIT™ (Lonza). Primary human skeletal myoblasts (Catalogue No. A11440, Thermo Fisher Scientific) were grown in DMEM with 2% horse serum. Primary human epidermal keratinocytes (Catalogue NO. CO215C, Thermo Fisher Scientific) were grown in EPILIFE® Medium (Thermo Fisher Scientific). Human umbilical vein endothelial cells (HUVEC) were grown in HUVEC EGM™-2 Media (Lonza). Primary human peripheral blood mononuclear cells (Catalogue NO. PCS-800-011, ATCC) were directly used without culture for experiments. RPMI 1640 medium with 10% human serum with human GM-CSF (Miltenyi Biotec Inc., Auburn, Calif., United States of America) was used as media during the experiment. Transfections were performed according to the manufacturer's instructions (LIPOFECTAMINE® 2000, Invitrogen). For transfection of primary human peripheral blood mononuclear cells, HiPerFect Transfection Reagent (Qiagen) was used as previously described (Troegeler et al., 2014). NRTIs were administered 60 minutes before transfection and added again upon replacement of media at 8 hours. To induce acid injury or osmotic stress, primary human RPE cells were treated with HCl (pH 4.0 media) or H2O for 30 minutes, 1 hour, and 2 hours at 37° C. in 5% CO2, respectively. NIH3T3 Tet-ON cells were cultured in DMEM with 10% tetracycline-free fetal bovine serum (FBS) with 100 U/ml penicillin/streptomycin. NIH3T3 Tet-ON cells were transfected with pLD401 (see Taylor et al., 2013; gift of J. D. Boeke, Institute for Systems Genetics, NYU Langone Health, New York, New York, United States of America) and human L1 ORF1p abundance was monitored after 24 hours of doxycycline induction. […]
# [2] = tested on: Alu cDNA in ARPE-19 cells; experiment: Alu cDNA in ARPE-19 cells (Alu c-PCR, in situ hybridization); type: cell-based, human; conditions: Alu c-PCR
# Method: Cell culture and transfection. Primary mouse and human RPE cells were isolated as previously described (Kerur et al., 2018). All cells were maintained at 37° C. in a 5% CO2 environment. Mouse RPE cells were cultured in DMEM supplemented with 20% FBS and penicillin/streptomycin antibiotics at standard concentrations; primary human RPE cells were maintained in DMEM supplemented with 10% FBS and antibiotics. The human RPE cell line ARPE19 was cultured as previously described (Kerur et al., 2018) and maintained in DMEM-F12 containing penicillin/streptomycin, Fungizone, and gentamicin. HEK293T cells were cultured in DMEM with 10% fetal bovine serum (FBS) with 100 U/ml penicillin/streptomycin and 2 mM L-glutamine. […]
# In situ hybridization. […] Visualization of fluorescein-labelled probe was performed with the TSA™ plus fluorescence system or the TSA™ plus Cy5 system (PerkinElmer). The fluorescent or Cy5 signals were detected using a Leica SP-5 or MR Nikon confocal microscope system. […]
# [3] = tested on: reverse transcriptase activity of cytoplasmic fractions of F9 cells; experiment: In vitro reverse transcriptase activity of cytoplasmic fractions (Alu RNA-templated, Alu-specific qPCR); type: biochemical, mouse
# Method: In vitro reverse transcriptase (RT) activity. In vitro reverse transcriptase (RT) activity in nuclear and cytoplasmic protein fractions was assessed using an Alu RNA-templated reaction. The RT reaction was carried out in a 20 μl reaction mix containing Alu RNA template (10 ng); Alu primer ([…]); dNTPs mix; cytoplasmic or nuclear protein, and Quantiscript RT Buffer (Qiagen). The reaction mixture was incubated at 42° C. for 30 minutes. The resulting cDNA was quantified by qPCR using Alu RNA template-specific primers. The reaction to evaluate self-priming activity of Alu RNA was carried out in the absence of priming oligos in a 20 μl reaction mix containing: Alu RNA with 3′-U tail; dNTP mix; cytoplasmic protein from mouse RPE cells; and Quantiscript RT Buffer (Qiagen) as described above. The resulting cDNA product was quantified by qPCR using Alu RNA template-specific primers. Alu RNA tailed on the 3′ end with chain terminator dideoxy thymidine base (ddTTP) was generated using TdT (New England Biolabs (NEB)) according to the manufacturer's instructions. Alu RNA tailed on the 3′ end with chain terminator cordycepin tri-phosphate was generated using PAP (NEB) according to the manufacturer's instructions.
# reverse transcriptase = conditions: Fowler et al., 2014; Ambati et al., 2018; cited from earlier work
Molecule,Endogenous Alu cDNA abundance [1],Endogenous Alu cDNA abundance [2],Alu cDNA formation from Alu RNA (reverse transcriptase activity) [3],inhibition of reverse transcriptase (reverse transcriptase)
"Cc1cn([C@H]2C=C[C@@H](CO)O2)c(=O)[nH]c1=O [d4T, 2′,3′-didehydro-2′,3′-dideoxythymidine]",dramatically decreased Alu cDNA levels; also recorded: reduced,reduced,,
azidothymidine triphosphate [AZT-TP],,,reduced Alu cDNA synthesis; also recorded: reduced Alu cDNA formation,inhibits reverse transcription
